Source: publication PMC10233829 (ACS Omega, 2023)
Converted amounts (≈) assume the structure as drawn. “And” between values parts separate entries of the source, which are not always exact repeats. Identical values can stand only once. Like-named read-outs stand apart in the source and are kept apart here.

What was measured:
[1] = molecular target: T1, S. aureus topoisomerase IV (Staphylococcus aureus, UniProt P0C1S7+P0C1U9); assay: Topoisomerase IV decatenation assay; assay type: biochemical; conditions: decatenation of kinetoplast DNA; read-out: IC50 S. aureus topoisomerase IV (converted)
T1 construct: purchased Inspiralis, Norwich, UK
Protocol: Briefly, 1 U of the enzyme (gyrase or topo IV, Inspiralis. Norwich, UK) isolated from S. aureus converts 0.5 mg of relaxed pBR322 DNA to the supercoiled form (gyrase) or decatenates 200 ng of kinetoplast DNA (topo IV). […] The reactions were terminated by adding an equal volume of STEB buffer (40% sucrose, 100 mM Tris–HCl pH 8, 10 mM EDTA, and 0.5 mg/mL bromophenol blue), followed by extraction with 1 volume of chloroform/isoamyl alcohol (24:1). The samples were vortexed and centrifuged, and 20 μL of the aqueous phase of each sample was loaded onto a 1% agarose gel and left for 30 min prior to electrophoresis to allow diffusion of salt. […] Gels were stained with ethidium bromide and visualized under UV light in a transilluminator (ChemiDoc MP, Bio Rad).

[2] = system: Staphylococci (standard strains); assay: MIC, standard Gram-positive strains as a panel; assay type: cell-based, S. aureus, S. epidermidis; conditions: for MIC: read-out: MIC toward standard Staphylococci (range over strains)
S. aureus DNA gyrase = S. aureus DNA gyrase (Staphylococcus aureus, UniProt P0A0K8+P20831); assay: biochemical; conditions: supercoiling of relaxed pBR322
Protocol: The enzymatic assay was carried using commercial topoisomerases type II as previously described by Alt et al.[55] with some modifications.
Briefly, 1 U of the enzyme (gyrase or topo IV, Inspiralis. Norwich, UK) isolated from S. aureus converts […] of relaxed pBR322 DNA to the supercoiled form (gyrase) or decatenates 200 ng of kinetoplast DNA (topo IV). […] The reactions were terminated by adding an equal volume of STEB buffer (40% sucrose, 100 mM Tris–HCl pH 8, 10 mM EDTA, and 0.5 mg/mL bromophenol blue), followed by extraction with 1 volume of chloroform/isoamyl alcohol (24:1). The samples were vortexed and centrifuged, and 20 μL of the aqueous phase of each sample was loaded onto a 1% agarose gel and left for 30 min prior to electrophoresis to allow diffusion of salt. […] Gels were stained with ethidium bromide and visualized under UV light in a transilluminator (ChemiDoc MP, Bio Rad).

[3] = system: P. aeruginosa ATCC 15442 and E. coli ATCC 25922; assay: MIC, standard Gram-negative rods as a panel; assay type: cell-based; conditions: P. aeruginosa ATCC 15442, E. coli ATCC 25922; for MIC: read-out: MIC against standard Gram-negative rods (range over strains)
[4] = system: IL-6 level in HaCaT cells; assay: Interleukin-6 ELISA; assay type: cell-based, human; conditions: IC50 concentration, 72 h
Protocol: (§1) The level of interleukin-6 (IL-6) in PC3 and HaCaT cell lines was measured by commercial human IL-6 ELISA kits Diaclon SAS (Besancon Cedex, France). […] The untreated cells were used as the control. The IL-6 level in a cell culture supernatant was measured using an enzyme-linked immunosorbent assay in accordance with the manufacturer’s instruction. The experiment was repeated three times.

IL-6 level in PC3 cells = assay: Interleukin-6 ELISA; assay type: cell-based, human; conditions: PC3, IC50 concentration, 72 h
Protocol: as §1

[5] = Trypan blue exclusion assay; assay type: cell-based, human; conditions: human; HaCaT, 72 h, compound at IC50
From the text: (§2) To monitor cell proliferation in response to long-term conjugate treatment, the trypan-blue exclusion assay was further performed. […] Thus, they exerted a cytostatic effect on them, suppressing their growth and proliferation. […]. […] […].
(§3) Figure 9 Trypan blue assay. The effect of compounds 3, 15, and 21 on cell number in PC3 and HaCaT cells. […] Data are expressed as the mean ± SD. ***p ≤ 0.001, **p ≤ 0.002, and *p ≤ 0.01, as compared to the control.
(§4) Figure 10 Trypan blue assay. The effect of compounds 3, 15, and 21 on viability in PC3 and HaCaT cells. […] Data are expressed as the mean ± SD. ***p ≤ 0.001, **p ≤ 0.01, and *p ≤ 0.05, as compared to the control.

HaCaT cells [6] = assay: Trypan blue exclusion assay; assay type: cell-based, human; conditions: for Cell number (% of control) / Cell number x 10^6: 72 h, compound at IC50; for impact on the number of live human keratinocytes: compounds at their IC50 for PC3 cells (2.02, 15.7, 4.8 μM)
From the text: as §2, §3, §4

PC3 cells [7] = assay: Trypan blue exclusion assay; assay type: cell-based, human; conditions: for Cell number (% of control) / Cell number x 10^6 / Viability (%): PC3, 72 h, compound at IC50
From the text: as §2, §3, §4

HaCaT cells [8] = assay: Annexin V-FITC/PI binding assay, flow cytometry; assay type: cell-based, human; conditions: 72 h, IC50 concentration; for Dead cells / Early apoptosis / Late apoptosis / Live cells: HaCaT
Protocol: (§5) The PC3 and HaCaT cells were cultured and harvested under the conditions mentioned in the Cell Culture section and seeded in 12-well plates (1 × 10^5 cells per well). […] The apoptotic effect was performed using the annexin V-FITC/propidium iodide (PI) apoptosis assay kit (Becton Dickinson, Pharmingen) according to the manufacturer’s instructions and analyzed by flow cytometry (Becton Dickinson). The cells which were annexin V-FITC-positive and PI-negative were identified as early apoptotic and both annexin V-FITC- and PI-positive as late apoptotic or necrotic. The experiment was repeated three times.

PC3 cells [9] = assay: Annexin V-FITC/PI binding assay, flow cytometry; assay type: cell-based, human; conditions: IC50 concentration; for PC3 cells in late apoptosis or necrosis: 72 h; for Dead cells / Early apoptosis / Late apoptosis / Live cells: PC3, 72 h
Protocol: as §5

M. tuberculosis Spec 210 = assay: microbe, parasite or virus in culture; assay type: cell-based, Mycobacterium tuberculosis
E. coli ATCC 25922 = assay: Bacterial growth curve assay (OD600, 18 h); assay type: cell-based, Escherichia coli; conditions: E. coli, 0.006 μg/mL
[10] = system: E. coli ATCC 25922 biofilm; assay: Biofilm eradication assay (crystal violet); assay type: cell-based, Escherichia coli; conditions: 4 MIC
Protocol: Three bacterial strains E. coli ATCC 25922, P. aeruginosa ATCC 15442, and S. aureus ATCC 6538 were used to assign biofilm eradication properties of compounds 5, 10, 11, and CP as the reference drug. To quantify the biomass of the bacteria biofilm, the crystal violet method was used with some modifications.[52] The bacteria were incubated to the mid-log phase, diluted to 103 cfu/mL in brain–heart infusion medium, and seeded in a 96-well plate. Bacterial biofilms were formed by overnight incubation at 37 °C with rotation at 140 rpm. After biofilm formation, all wells were washed with PBS to remove nonadherent bacteria cells. […] The biofilms with tested substances were incubated for 20 h at 37 °C with shaking at 140 rpm. The bacterial biofilm was stained with 0.1% (v/v) CV for 10 min. Afterward, the biofilm was rinsed with PBS and dried. To solubilize the adsorbed crystal violet, wells with stained biofilms were incubated in 30% acetic acid. To estimate the total biofilm biomass, optical density (OD) of the resulting solution was measured at 595 nm. Biofilm assays were repeated at least three times on different days, with two technical replicates assessed each time. A minimum eradication concentration (MBEC) was determined as the lowest concentration of compound, which could damage ≥50% of the formed biofilm structure.

[11] = standard Gram-positive strains of Table 1

T1 sequence (P0C1U9 whole entry): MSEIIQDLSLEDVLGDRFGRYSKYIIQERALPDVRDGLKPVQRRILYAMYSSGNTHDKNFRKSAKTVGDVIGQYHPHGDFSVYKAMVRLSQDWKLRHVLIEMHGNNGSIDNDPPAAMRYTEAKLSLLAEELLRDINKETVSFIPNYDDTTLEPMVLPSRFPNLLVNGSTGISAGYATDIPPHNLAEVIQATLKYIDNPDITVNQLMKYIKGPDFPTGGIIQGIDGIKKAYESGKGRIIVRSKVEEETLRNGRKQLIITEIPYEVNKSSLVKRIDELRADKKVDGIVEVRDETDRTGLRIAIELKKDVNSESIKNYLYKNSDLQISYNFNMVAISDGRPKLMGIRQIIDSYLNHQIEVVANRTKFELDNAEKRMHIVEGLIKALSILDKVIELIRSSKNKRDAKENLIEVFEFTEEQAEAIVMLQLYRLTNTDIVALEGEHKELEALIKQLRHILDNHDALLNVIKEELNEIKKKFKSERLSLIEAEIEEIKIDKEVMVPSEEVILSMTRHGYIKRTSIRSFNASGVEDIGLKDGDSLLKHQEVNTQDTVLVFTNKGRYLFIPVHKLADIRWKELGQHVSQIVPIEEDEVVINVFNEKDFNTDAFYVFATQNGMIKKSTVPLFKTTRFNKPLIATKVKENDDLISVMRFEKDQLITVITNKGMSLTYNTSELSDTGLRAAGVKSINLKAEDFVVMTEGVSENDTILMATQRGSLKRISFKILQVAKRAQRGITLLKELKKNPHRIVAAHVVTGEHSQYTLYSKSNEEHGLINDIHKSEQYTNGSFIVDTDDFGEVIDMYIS
T1 sequence (P0C1S7 whole entry): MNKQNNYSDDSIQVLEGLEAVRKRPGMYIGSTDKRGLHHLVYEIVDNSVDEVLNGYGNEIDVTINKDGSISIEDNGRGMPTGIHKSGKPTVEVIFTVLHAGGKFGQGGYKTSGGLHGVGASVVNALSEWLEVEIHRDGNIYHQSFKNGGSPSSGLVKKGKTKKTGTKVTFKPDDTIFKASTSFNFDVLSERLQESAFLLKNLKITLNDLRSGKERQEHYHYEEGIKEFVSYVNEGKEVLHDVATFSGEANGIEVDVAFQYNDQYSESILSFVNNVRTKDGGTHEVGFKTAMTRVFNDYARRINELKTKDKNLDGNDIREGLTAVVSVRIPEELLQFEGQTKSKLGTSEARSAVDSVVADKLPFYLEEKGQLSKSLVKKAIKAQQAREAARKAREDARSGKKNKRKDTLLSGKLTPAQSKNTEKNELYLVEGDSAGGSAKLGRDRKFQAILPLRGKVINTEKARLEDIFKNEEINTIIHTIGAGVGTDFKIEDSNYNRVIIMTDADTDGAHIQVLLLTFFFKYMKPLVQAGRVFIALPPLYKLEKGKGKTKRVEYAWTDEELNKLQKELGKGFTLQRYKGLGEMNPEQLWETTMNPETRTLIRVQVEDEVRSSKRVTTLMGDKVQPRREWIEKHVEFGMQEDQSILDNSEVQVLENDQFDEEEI
Chain of S. aureus DNA gyrase (P0A0K8 whole entry): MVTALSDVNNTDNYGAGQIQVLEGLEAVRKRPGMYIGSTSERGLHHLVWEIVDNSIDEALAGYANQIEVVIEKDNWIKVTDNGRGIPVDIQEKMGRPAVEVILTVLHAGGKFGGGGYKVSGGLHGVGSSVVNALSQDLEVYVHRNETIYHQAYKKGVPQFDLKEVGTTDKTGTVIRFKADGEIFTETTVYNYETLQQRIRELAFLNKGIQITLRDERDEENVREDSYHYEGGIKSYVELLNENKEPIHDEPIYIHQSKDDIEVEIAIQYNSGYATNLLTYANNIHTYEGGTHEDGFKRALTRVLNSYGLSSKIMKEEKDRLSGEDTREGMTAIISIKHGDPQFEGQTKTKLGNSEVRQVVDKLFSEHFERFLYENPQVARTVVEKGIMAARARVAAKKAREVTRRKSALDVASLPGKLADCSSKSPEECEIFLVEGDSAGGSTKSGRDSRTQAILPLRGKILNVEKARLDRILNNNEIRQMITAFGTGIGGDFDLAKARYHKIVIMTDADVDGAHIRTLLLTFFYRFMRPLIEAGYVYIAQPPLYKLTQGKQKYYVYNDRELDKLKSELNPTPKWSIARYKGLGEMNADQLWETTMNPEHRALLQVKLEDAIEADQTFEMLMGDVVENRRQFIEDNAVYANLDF
Chain of S. aureus DNA gyrase (P20831 whole entry): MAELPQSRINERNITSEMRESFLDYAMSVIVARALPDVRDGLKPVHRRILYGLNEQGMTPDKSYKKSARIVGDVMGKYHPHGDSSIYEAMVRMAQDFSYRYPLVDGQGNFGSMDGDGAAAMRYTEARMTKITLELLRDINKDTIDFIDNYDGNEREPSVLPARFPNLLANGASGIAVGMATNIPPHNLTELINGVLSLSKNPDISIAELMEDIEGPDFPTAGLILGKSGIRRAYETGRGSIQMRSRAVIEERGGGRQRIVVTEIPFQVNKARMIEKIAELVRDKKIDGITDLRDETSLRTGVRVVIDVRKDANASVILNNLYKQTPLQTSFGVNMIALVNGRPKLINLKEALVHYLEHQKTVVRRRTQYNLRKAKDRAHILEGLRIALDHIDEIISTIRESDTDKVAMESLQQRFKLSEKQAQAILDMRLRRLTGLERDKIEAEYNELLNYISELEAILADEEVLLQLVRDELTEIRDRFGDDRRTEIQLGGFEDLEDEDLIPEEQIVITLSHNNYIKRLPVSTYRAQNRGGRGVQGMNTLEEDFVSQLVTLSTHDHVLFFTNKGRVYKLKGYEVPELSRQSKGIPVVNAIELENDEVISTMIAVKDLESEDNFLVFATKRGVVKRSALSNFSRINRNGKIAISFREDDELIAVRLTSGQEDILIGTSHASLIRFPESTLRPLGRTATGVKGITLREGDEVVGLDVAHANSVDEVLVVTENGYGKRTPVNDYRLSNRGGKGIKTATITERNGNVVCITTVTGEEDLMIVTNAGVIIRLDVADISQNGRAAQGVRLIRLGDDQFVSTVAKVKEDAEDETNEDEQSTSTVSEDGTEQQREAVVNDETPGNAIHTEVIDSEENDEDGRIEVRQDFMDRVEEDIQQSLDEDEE

SMILES | IC50 [1] [µM] | IC50 (S. aureus DNA gyrase) [µM] | share of CP potency kept against standard Gram-negative rods [3] | MIC [3] [mg/L] | effect on IL-6 in human keratinocytes [4] | viability at 72 h [5] [%] | Cell number (% of control) (HaCaT cells [6]) | Cell number x 10^6 (HaCaT cells [6]) | impact on the number of live human keratinocytes (HaCaT cells [6]) | Cell number (% of control) (PC3 cells [7]) | Cell number x 10^6 (PC3 cells [7]) | Viability (%) (PC3 cells [7]) | HaCaT cells in late apoptosis/necrosis (HaCaT cells [8]) | Dead cells (HaCaT cells [8]) [%] | Early apoptosis (HaCaT cells [8]) [%] | Late apoptosis (HaCaT cells [8]) [%] | Live cells (HaCaT cells [8]) [%] | PC3 cells in late apoptosis or necrosis (PC3 cells [9]) [%] | Dead cells (PC3 cells [9]) [%] | Early apoptosis (PC3 cells [9]) | other results
O=C(O)c1cn(C2CC2)c2cc(N3CCN(C(=O)C4CC4)CC3)c(F)cc2c1=O [Compound 2, 7-(4-Cyclopropanecarbonyl-piperazin-1-yl)-1-cyclopropyl-6-fluoro-4-oxo-1,4-dihydro-quinoline-3-carboxylic Acid] | 23.8 | 22.3 | 30–60% | 0.025 to 0.2 (≈ 0.0626 to 0.501 µM) | – | – | – | – | – | – | – | – | – | – | – | – | – | – | – | – | MIC [2]: 0.05 to 0.4 mg/L (≈ 0.125 to 1 µM); fold more active than CP toward standard Staphylococci [2, 11]: 1.25–10 fold
O=C(O)c1cn(C2CC2)c2cc(N3CCN(C(=O)CCl)CC3)c(F)cc2c1=O [Compound 3, 7-[4-(2-Chloroacetyl)-piperazin-1-yl]-1-cyclopropyl-6-fluoro-4-oxo-1,4-dihydro-quinoline-3-carboxylic Acid] | 78.5 | 61.3 | – | ≤ 1 | stimulated human keratinocytes to produce IL-6 | 75 ± 2.23 | 12.15 % of control | 0.2 ± 0.01 x 10^6 | negligible impact | 1.97 % of control | 0.04 ± 0.01 x 10^6 | 52 ± 2.40 | 47.23% | 9.99 ± 1.17 | 10.07 ± 1.22 | 37.24 ± 2.27 | 42.70 ± 2.81 | 78.22 | 66.10 ± 6.31 | 1.51 ± 0.04% | decrease of IL-6 release as compared to the control (IL-6 level in PC3 cells): 3.5 times; decrease of PC3 cell viability (PC3 cells [7]; 72 h, IC50 concentration): 48%; Late apoptosis (PC3 cells [9]): 12.12 ± 2.18%; Live cells (PC3 cells [9]): 20.27 ± 0.45%; fold more effective than the reference tuberculostatics (M. tuberculosis Spec 210; M. tuberculosis Spec. 210): 8–32 fold
O=C(O)c1cn(C2CC2)c2cc(N3CCN(C(=O)CCCCl)CC3)c(F)cc2c1=O [Compound 5, 7-[4-(4-Chlorobutyryl)-piperazin-1-yl]-1-cyclopropyl-6-fluoro-4-oxo-1,4-dihydro-quinoline-3-carboxylic Acid] | 6.19 | 7.34 | 30–60% | 0.025 to 0.2 (≈ 0.0574 to 0.459 µM) | – | – | – | – | – | – | – | – | – | – | – | – | – | – | – | – | lag phase elongated to (E. coli ATCC 25922): 6 h; eradication of the biofilm formed by E. coli [10]: approx. 20%
O=C(O)c1cn(C2CC2)c2cc(N3CCN(C(=O)CCCBr)CC3)c(F)cc2c1=O [Compound 10, 7-[4-(4-Bromobutyryl)-piperazin-1-yl]-1-cyclopropyl-6-fluoro-4-oxo-1,4-dihydro-quinoline-3-carboxylic Acid] | 10.4 | 16.4 | 60% | 0.025 to 0.1 (≈ 0.052 to 0.208 µM) | – | – | – | – | – | – | – | – | – | – | – | – | – | – | – | – | lag phase elongated to (E. coli ATCC 25922): 9 h
O=C(O)c1cn(C2CC2)c2cc(N3CCN(C(=O)CCC(F)(F)F)CC3)c(F)cc2c1=O [Compound 15, 7-[4-(4,4,4-Trifluorobutyryl)-piperazin-1-yl]-1-cyclopropyl-6-fluoro-4-oxo-1,4-dihydro-quinoline-3-carboxylic Acid] | – | – | – | – | No significant pro- or anti-inflammatory properties | 90 ± 3.04 | 48.38 % of control | 0.8 ± 0.10 x 10^6 | negligible impact | 12.04 % of control | 0.3 ± 0.08 x 10^6 | 82 ± 2.64 | did not indicate appreciable apoptosis-inducing action | 0.3 ± 0.01 | 11.63 ± 2.93 | 0.77 ± 0.05 | 87.32 ± 2.20 | 37.64 | 21.15 ± 3.29 | 1.15 ± 0.10% | decrease of IL-6 release as compared to the control (IL-6 level in PC3 cells): 1.9 times; MIC [2, 11]: 0.2 mg/L (≈ 0.439 µM); Late apoptosis (PC3 cells [9]): 16.49 ± 2.65%; Live cells (PC3 cells [9]): 61.21 ± 2.06%
O=C(O)c1cn(C2CC2)c2cc(N3CCN(CCCCCCCCCCC(=O)N4CCN(c5cc6c(cc5F)c(=O)c(C(=O)O)cn6C5CC5)CC4)CC3)c(F)cc2c1=O [Compound 21, CP–Undecanoyl–CP Dimer] | – | – | – | – | stimulated human keratinocytes to produce IL-6 | 94 ± 4.01 | 19.35 % of control | 0.3 ± 0.01 x 10^6 | negligible impact | 6.22 % of control | 0.2 ± 0.03 x 10^6 | 78 ± 1.50 | 34.95% | 14.24 ± 3.78 | 10.52 ± 1.07 | 20.71 ± 4.34 | 54.53 ± 3.34 | 69.29 | 52.91 ± 3.99 | 28.22 ± 0.98% and 28.22% | Late apoptosis (PC3 cells [9]): 16.28 ± 2.80%; Live cells (PC3 cells [9]): 2.59 ± 0.20%; fold more effective than the reference tuberculostatics (M. tuberculosis Spec 210): 8–32 fold
